Where two headings read alike, the source gives them in different places.
Legend:
Format in all cases: in vivo
[1] = tested on: Abutilon theophrasti (ABUTH); assay: Post-emergence herbicidal action against ABUTH; settings: visual rating about 3 weeks after treatment vs untreated controls (100% = plants have died, 0% = like control plants)
Outline: (§1)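 Values are percent visual activity (0% like control, 100% plants dead) after about 3 weeks in the greenhouse. Treatment: post-emergence spray at one-leaf stage, 600 l/ha spray volume, 0.5% additive, doses 320 g/ha or lower.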

[2] = tested on: Pharbitis purpurea (PHBPU); assay: Post-emergence herbicidal action against PHBPU
Outline: as §1

Viola tricolor (VIOTR) [3] = assay: Post-emergence herbicidal action against VIOTR
Outline: as §1

[4] = tested on: Alopecurus myosuroides (ALOMY); assay: Post-emergence herbicidal action against ALOMY; settings: visual rating about 3 weeks after treatment vs untreated controls (100% = plants have died, 0% = like control plants)
Outline: as §1

[5] = tested on: Polygonum convolvulus (POLCO); assay: Pre-emergence herbicidal action against POLCO
Outline: (§2)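 Pre-emergence soil-surface spray, WP/EC formulation, 0.5% additive, 600 l/ha water, rates of 320 g/ha or lower. Greenhouse, ~3 wk. Visual score, % of untreated control (100% = plants dead, 0% = like control).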

[6] = tested on: Polygonum convolvulus (POLCO); assay: Post-emergence herbicidal action against POLCO; settings: dosage 320 g/ha
Outline: as §1

[7] = tested on: Echinochloa crus-galli (ECHCG); assay: Pre-emergence herbicidal action against ECHCG; settings: dosage 320 g/ha
Outline: as §2

[8] = tested on: Pharbitis purpurea (PHBPU); assay: Pre-emergence herbicidal action against PHBPU
Outline: as §2

Avena fatua (AVEFA) [9] = assay: Post-emergence herbicidal action against AVEFA; settings: visual rating about 3 weeks after treatment
Outline: as §1

Lolium rigidum (LOLRI) [10] = assay: Pre-emergence herbicidal action against LOLRI
Outline: as §2

Setaria viridis (SETVI) [11] = assay: Post-emergence herbicidal action against SETVI
Outline: as §1

[12] = tested on: Amaranthus retroflexus (AMARE); assay: Pre-emergence herbicidal action against AMARE; settings: visual scoring after about 3 weeks vs untreated controls
Outline: as §2

[13] = tested on: Verconica persica (VERPE); assay: Post-emergence herbicidal action against VERPE
Outline: as §1

[14] = tested on: Abutilon theophrasti (ABUTH); assay: Pre-emergence herbicidal action against ABUTH; settings: Dosage column 320 g/ha (title prints 3200 g/ha); scored visually after about 3 weeks; 100% = plants have died
Source text: Seeds of monocotyledonous and dicotyledonous weed plants and crop plants are placed in plastic or organic planting pots and covered with soil. The compounds of the invention, formulated in the form of wettable powders (WP) or as emulsion concentrates (EC), are then applied to the surface of the covering soil as aqueous suspension or emulsion with addition of 0.5% additive at a water application rate equivalent to 600 l/ha. After the treatment, the pots are placed in a greenhouse and kept under good growth conditions for the trial plants. After about 3 weeks, the effect of the preparations is scored visually in comparison with untreated controls as percentages. For example, 100% activity=the plants have died, 0% activity=like control plants.
Tables A1 to A13 below show the effects of selected compounds of the general formula (I) on various harmful plants and at an application rate corresponding to 320 g/ha or lower, which were obtained by the experimental procedure mentioned above. The appendices “a”, “b” and “c” give differentiation by dosage used with otherwise the same harmful plants tested.

[15] = tested on: Amaranthus retroflexus (AMARE); assay: Post-emergence herbicidal action against AMARE
Outline: as §1

Viola tricolor (VIOTR) [16] = assay: Pre-emergence herbicidal action against VIOTR
Outline: as §2

Avena fatua (AVEFA) [17] = assay: Pre-emergence herbicidal action against AVEFA; settings: visual scoring after about 3 weeks vs untreated controls
Outline: as §2

[18] = tested on: Alopecurus myosuroides (ALOMY); assay: Pre-emergence herbicidal action against ALOMY; settings: scored visually after about 3 weeks, 100% = plants have died
Outline: as §2

[19] = tested on: Echinochloa crus-galli (ECHCG); assay: Post-emergence herbicidal action against ECHCG
Outline: as §1

Oryza sativa (ORYSA) = settings: crop plant compatibility
Outline: (§3)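 Percent effect on the crop was judged by eye against untreated controls, where 0% means like control and 100% means dead plants. Plants had been sprayed post-emergence at the one-leaf stage and then kept under optimum greenhouse conditions for about 3 weeks.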

[20] = tested on: Verconica persica (VERPE); assay: Pre-emergence herbicidal action against VERPE
Outline: as §2

Lolium rigidum (LOLRI) [21] = assay: Post-emergence herbicidal action against LOLRI
Outline: as §1

Setaria viridis (SETVI) [22] = assay: Pre-emergence herbicidal action against SETVI
Outline: as §2

[23] = tested on: Matricaria inodora (MATIN); assay: Pre-emergence herbicidal action against MATIN
Outline: as §2

Zea mays (ZEAMX) = tested on: Zea mays (ZEAMX)
Outline: as §3

[24] = 80 g/ha, visual rating about 3 weeks after treatment vs untreated controls (100% = plants have died, 0% = like control plants)
[25] = 80 g/ha, effect in comparison to untreated controls
[26] = 20 g/ha, effect vs untreated controls

| SMILES | Post-emergence action against ALOMY in % ([4]; 80 g/ha) [%] | Pre-emergence action against POLCO in % ([5]; dosage 320 g/ha) [%] | Pre-emergence action against ECHCG in % [7] [%] | Pre-emergence action against PHBPU in % ([8]; dosage 320 g/ha) [%] | Post-emergence action against AVEFA in % (Avena fatua (AVEFA) [9]; 80 g/ha) [%] | Pre-emergence action against LOLRI in % (Lolium rigidum (LOLRI) [10]; dosage 80 g/ha) [%] | Pre-emergence action against LOLRI in % (Lolium rigidum (LOLRI) [10]; dosage 320 g/ha) [%] | Post-emergence action against SETVI in % (Setaria viridis (SETVI) [11]; dosage 80 g/ha) [%] | Pre-emergence action against AMARE in % ([12]; 80 g/ha) [%] | Pre-emergence action against AMARE in % ([12]; 320 g/ha) [%] | Post-emergence action against VERPE in % ([13]; dosage 80 g/ha) [%] | Pre-emergence action against ABUTH [14] [%] | Pre-emergence action against VIOTR in % (Viola tricolor (VIOTR) [16]; 320 g/ha, Viola tricolor) [%] | Pre-emergence action against VIOTR in % (Viola tricolor (VIOTR) [16]; dosage 80 g/ha) [%] | Pre-emergence action against AVEFA in % (Avena fatua (AVEFA) [17]; 80 g/ha) [%] | Pre-emergence action against AVEFA in % (Avena fatua (AVEFA) [17]; 320 g/ha) [%] | Pre-emergence action against ALOMY ([18]; 320 g/ha) [%] | Post-emergence action against ORYSA in % (Oryza sativa (ORYSA); [25]) [%] | Pre-emergence action against VERPE in % ([20]; dosage 320 g/ha) [%] | Post-emergence action against LOLRI in % (Lolium rigidum (LOLRI) [21]; dosage 80 g/ha) [%] | other results |
| --- | --- | --- | --- | --- | --- | --- | --- | --- | --- | --- | --- | --- | --- | --- | --- | --- | --- | --- | --- | --- | --- |
| COC(=O)CCOC(=O)[C@@H](C)Oc1nn(-c2ccccn2)c(-c2ccc(F)nc2)c1Cl [Example I-340] | 90 | 90 | 100 | 80 | 90 | 100 | 100 | 80 | 90 | 100 | 80 | 80 | 100 | 100 | 80 | 90 | 100 | 0 | 100 | 90 | Post-emergence action against ABUTH in % ([1]; 320 g/ha): 80%; Post-emergence action against PHBPU in % ([2]; dosage 80 g/ha): 90%; Post-emergence action against PHBPU in % ([2]; dosage 320 g/ha): 90%; Post-emergence action against VIOTR in % (Viola tricolor (VIOTR) [3]; 80 g/ha): 90%; Post-emergence action against VIOTR in % (Viola tricolor (VIOTR) [3]; 320 g/ha): 90%; Post-emergence action against ALOMY in % ([4]; 320 g/ha): 100%; Pre-emergence action against POLCO in % ([5]; dosage 80 g/ha): 80%; Post-emergence action against POLCO in % [6]: 90%; Post-emergence action against AVEFA in % (Avena fatua (AVEFA) [9]; 320 g/ha): 90%; Post-emergence action against SETVI in % (Setaria viridis (SETVI) [11]; dosage 320 g/ha): 90%; Post-emergence action against VERPE in % ([13]; 320 g/ha, VERPE): 90%; Post-emergence action against AMARE in % [15, 24]: 80%; Post-emergence action against AMARE in % ([15]; 320 g/ha, visual rating about 3 weeks after treatment): 90%; Post-emergence action against ECHCG in % ([19]; dosage 80 g/ha): 80%; Post-emergence action against ECHCG in % ([19]; dosage 320 g/ha): 90%; Post-emergence action against ORYSA in % (Oryza sativa (ORYSA); 320 g/ha, effect in comparison to untreated controls): 0%; Post-emergence action against LOLRI in % (Lolium rigidum (LOLRI) [21]; dosage 320 g/ha): 90% |
| C[C@@H](Oc1nn(-c2ncccc2F)c(-c2ccc(F)nc2)c1Br)C(=O)OCc1ccccn1 [Example I-52] | 90 | 90 | 100 | 90 | 90 | 90 | 100 | 80 | 80 | 100 | 90 | 80 | 100 | 100 | 90 | 100 | 100 | 10 | 100 | 80 | Pre-emergence action against SETVI in % (Setaria viridis (SETVI) [22]; dosage 320 g/ha): 100%; Pre-emergence action against MATIN in % ([23]; dosage 320 g/ha): 90%; Pre-emergence action against ALOMY ([18]; 80 g/ha): 90%; Post-emergence action against ZEAMX in % (crop plant compatibility) (Zea mays (ZEAMX); 20 g/ha, ZEAMX, effect in comparison to untreated controls): 0%; Post-emergence action against ZEAMX in % (Zea mays (ZEAMX); crop plant compatibility, 80 g/ha, effect vs untreated controls): 10%; Post-emergence action against ORYSA in % (Oryza sativa (ORYSA); [26]): 0%; Pre-emergence action against VERPE in % ([20]; dosage 80 g/ha): 80% |
| COC(=O)[C@@H](C)Oc1nn(-c2ccccn2)c(-c2cncc(F)c2)c1Br [Example I-83] | 100 | 90 | 100 | 90 | 100 | 100 | 100 | 90 | 90 | 100 | 80 | 80 | 100 | 100 | 80 | 90 | 100 | 20 | 100 | 90 | Post-emergence action against ABUTH in % ([1]; 80 g/ha): 90%; Post-emergence action against PHBPU in % ([2]; dosage 80 g/ha): 90%; Pre-emergence action against POLCO in % ([5]; dosage 80 g/ha): 80%; Pre-emergence action against PHBPU in % ([8]; dosage 80 g/ha): 80%; Pre-emergence action against SETVI in % (Setaria viridis (SETVI) [22]; dosage 80 g/ha): 90%; Pre-emergence action against SETVI in % (Setaria viridis (SETVI) [22]; dosage 320 g/ha): 100%; Pre-emergence action against MATIN in % ([23]; dosage 80 g/ha): 90%; Pre-emergence action against MATIN in % ([23]; dosage 320 g/ha): 100%; Post-emergence action against AMARE in % [15, 24]: 90%; Pre-emergence action against ALOMY ([18]; 80 g/ha): 90%; Post-emergence action against ECHCG in % ([19]; dosage 80 g/ha): 90%; Post-emergence action against ORYSA in % (Oryza sativa (ORYSA); [26]): 0%; Pre-emergence action against VERPE in % ([20]; dosage 80 g/ha): 90% |
